#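 1) Cells in 96-well plates. 2) Compound, 48 h, 5 concentrations. 3) Linear interpolation between surrounding doses. 4) Unreached endpoint = highest concentration. Abbreviation: GI50, concentration required for 50% inhibition of growth. Definition used: TGI = concentration required for complete inhibition of growth.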 Where a SMILES comes first, the peptide text is derived from it. [ ]: non-standard residue; d: D form. ξ: configuration not given here. Pentanoyl(2-O,4-OH,5-Cl) = O=C(O)C(O)CC(O)CCl; Ile(3ξ) = CCC(C)[C@H](N)C(=O)O; NMeV = CN[C@H](C(=O)O)C(C)C; NMeA = CN[C@@H](C)C(=O)O; βAla = NCCC(=O)O
# How the values were obtained:
# Assay in all cases: NCI tumour cell line growth inhibition, 48 h
# [1] = system: HOP-18 NSCLC
# [2] = system: DMS 114 small cell lung
# [3] = system: DLD-1 colon
# [4] = system: KM20L2 colon
# [5] = system: RXF-631 renal
# [6] = system: XF 498 CNS
# [7] = system: SNB-78 CNS
# [8] = system: DMS 273 small cell lung
# [9] = system: MDA-N
# [10] = system: P388/ADR leukemia
# [11] = system: SN12K1 renal
# [12] = system: P388 leukemia
SMILES,TGI [1],TGI [2],TGI [3],TGI [4],TGI [6],TGI [7],TGI [8],TGI [9],further results
CSC(=Nc1ccc([N+](=O)[O-])cc1C#N)NC(=O)c1ccccc1,> 100 µM,> 100 µM,> 100 µM,> 100 µM,> 100 µM,> 100 µM,,,TGI [5]: > 100 µM
O=S1(=O)[C@H](c2ccccc2)c2c(-c3ccccc3)sc(-c3ccccc3)c2[C@@H]1c1ccccc1,> 100 µM,> 100 µM,> 100 µM,> 100 µM,,,> 100 µM,,
CCC(=O)N1C(=S)SC[C@H]1C(=O)OC,> 100 µM,> 100 µM,> 100 µM,> 100 µM,> 100 µM,> 100 µM,> 100 µM,,
CN(c1ccccc1)c1nc(=[N+](C)C)ss1,> 100 µM,> 100 µM,> 100 µM,> 100 µM,> 100 µM,> 100 µM,> 100 µM,,
O=C(Nc1ccc(Nc2ccc3c(c2)C(=O)c2ccccc2C3=O)c2c1C(=O)c1ccccc1C2=O)c1ccccc1,,,,,,,,> 100 µM,
CS(=O)(=O)N(CCC#N)c1ccc(/C=C2\N=C(c3ccccc3Cl)OC2=O)cc1,,> 100 µM,> 100 µM,> 100 µM,> 100 µM,> 100 µM,> 100 µM,,
[N-]=[N+]=NC1C(Cl)C(=O)NC(=O)N1[C@H]1C[C@H](O)[C@@H](CO)O1 (stereo partly drawn),,> 100 µM,> 100 µM,> 100 µM,> 100 µM,> 100 µM,> 100 µM,,TGI [5]: > 100 µM
O=C(O)C1CCCN1 (stereo not drawn),,,,,,,,> 100 µM,
O=c1oc2ccccc2cc1P(=O)(O)O,,,,,,,,> 100 µM,
CN(C)CCN1C(=O)c2cccc3cc(N)cc(c23)C1=O,33.7 µM,12.7 µM,27.7 µM,23.5 µM,3.64 µM,,8.22 µM,13.4 µM,TGI [10]: 11.8 µM; TGI [11]: 7.43 µM; TGI [12]: 12.1 µM
Clc1ccc(NCNC2Nc3ccccc3N2)cc1Cl,,,,,,,,> 100 µM,
CCOc1ccc2c(c1)[n+]([O-])c(C(N)=O)c(N)[n+]2[O-],> 100 µM,> 100 µM,> 100 µM,> 100 µM,> 100 µM,> 100 µM,> 100 µM,,
O=C(c1ccccc1)[C@H]1Nc2ccc(Cl)cc2[C@H]2c3ccccc3O[C@H]21,24 µM,40.1 µM,30 µM,28.3 µM,28.2 µM,32.3 µM,38.7 µM,,
[O-]c1ccccc1C=NCCN=Cc1ccccc1[O-].[O]=[U+2]=[O],> 77.1 µM,,> 100 µM,> 100 µM,,,> 100 µM,,GI50 [1]: 31.2 µM; GI50 [3]: 27 µM; GI50 [4]: > 100 µM; GI50 [8]: 32.5 µM
O=C1C2C3SC(c4cc5ccccc5cc43)C2C(=O)N1c1ccccc1 (stereo not drawn),> 100 µM,> 100 µM,,> 100 µM,,> 100 µM,> 100 µM,,TGI [5]: > 100 µM
CC(C)CC(NC(=O)C(O)C(N)Cc1ccccc1)C(=O)O (stereo not drawn),,,,,,,,> 100 µM,
O=C1CN=C(c2ccccc2)c2ccncc2N1,> 100 µM,> 100 µM,> 100 µM,> 100 µM,> 100 µM,> 100 µM,> 100 µM,,TGI [5]: > 100 µM
CCOP(=O)(OCC)C(C(=O)OC)C(=O)C(=O)Nc1cccc([N+](=O)[O-])c1 (stereo not drawn),> 100 µM,> 100 µM,> 100 µM,> 100 µM,> 100 µM,> 100 µM,> 100 µM,,TGI [5]: > 100 µM
CN(N=O)C(=O)NC(CCCCNC(=O)OCc1ccccc1)C(=O)OCc1ccccc1 (stereo not drawn),,72.6 µM,> 100 µM,> 100 µM,30.6 µM,60.4 µM,> 100 µM,,TGI [5]: 44.8 µM
CC(C)N1CCOC(c2ccc(O)c(O)c2)C1 (stereo not drawn),,> 100 µM,> 100 µM,> 100 µM,> 100 µM,> 100 µM,> 100 µM,,TGI [5]: > 100 µM
COc1ccc(C(O)C(c2ccc(OCc3ccccc3)cc2)c2ccc(OCc3ccccc3)cc2)cc1 (stereo not drawn),,> 100 µM,> 100 µM,> 100 µM,> 100 µM,> 100 µM,> 100 µM,,
COc1cc(OC)c(OC)cc1/C=C/c1ccccn1,,,,,,,,> 10 µM,
O=S(=O)(c1ccccc1)N1CCC1c1ccccc1 (stereo not drawn),> 100 µM,> 100 µM,,> 100 µM,> 100 µM,> 100 µM,> 100 µM,,TGI [5]: > 100 µM

SMILES,TGI [1],TGI [2],TGI [3],TGI [4],TGI [6],TGI [7],TGI [8],TGI [9],further results
O=C(O)c1c2c(c(O)c3c1CN(C1CCCCC1)CO3)OCN(C1CCCCC1)C2,,,,,,,,> 100 µM,
C=C1C(=O)O[C@@H]2C[C@@]3(C)CCC[C@H](C)C3=C[C@H]12 (tested in a mixture with another compound),,,,,,,,7.08 µM,
Cc1cc[c]([Sb]2[O]C(CO)C(C(O)C(O)C(=O)O)[O]2)cc1 (stereo not drawn),,,,,,,,> 100 µM,GI50 [9]: 43.5 µM
O=c1cc(-c2cccc(Cl)c2)[nH]c2cc3c(cc12)OCO3,34.4 µM,4.23 µM,8.57 µM,,13.8 µM,,75 µM,0.158 µM,
O=NN(CC1(O)OCC(O)C(O)C1O)C(Cc1c[nH]c2ccccc12)C(=O)O (stereo not drawn),,> 100 µM,> 100 µM,> 100 µM,> 100 µM,> 100 µM,> 100 µM,,TGI [5]: > 100 µM
CCOc1ccc2c(c1)[n+]([O-])c(-c1ccccc1)c(N)[n+]2[O-],> 100 µM,> 100 µM,> 100 µM,> 100 µM,> 100 µM,,> 100 µM,,
COC1C(OC(=O)/C=C/C=C/C=C/C=C/C(=O)O)CCC2(CO2)C1C1(C)OC1CC=C(C)C (stereo not drawn),94.8 µM,> 100 µM,> 100 µM,> 100 µM,> 100 µM,> 100 µM,> 100 µM,> 100 µM,GI50 [9]: 0.246 µM; TGI [10]: > 49.2 µM; TGI [11]: > 100 µM; TGI [12]: 29.1 µM
O=c1c2ccccc2c(=O)n2n1-c1cccc(c1)CSSCc1cccc-2c1,> 100 µM,> 100 µM,> 100 µM,> 100 µM,> 100 µM,> 100 µM,> 100 µM,,GI50 [1]: > 100 µM; GI50 [2]: > 100 µM; GI50 [3]: > 100 µM; GI50 [8]: > 100 µM; GI50 [5]: > 100 µM; TGI [5]: > 100 µM
Cc1cccc(-c2nc(=S)[nH][nH]2)c1,> 100 µM,,> 100 µM,> 100 µM,> 100 µM,> 100 µM,> 100 µM,,TGI [5]: > 100 µM
CC(C)(Sc1cc(C(C)(C)C)c(O)c(C(C)(C)C)c1)Sc1cc(C(C)(C)C)c(O)c(C(C)(C)C)c1,,,,,,,,> 100 µM,
O=C(c1ccccc1)c1nc2ccc(Cl)cc2cc1C(Br)Br,1.31 µM,4.02 µM,0.706 µM,0.808 µM,2.5 µM,,0.966 µM,,
CCN(CC)CC(C(=O)Nc1c(C)cccc1C)/C(C)=N\NC(=S)NN (stereo not drawn),,,> 100 µM,> 100 µM,> 100 µM,,> 100 µM,,TGI [5]: > 100 µM
O=c1c(-c2cccc3ccccc23)c(-c2cccc3ccccc23)c1=O,> 100 µM,13.2 µM,> 100 µM,1.59 µM,99 µM,> 100 µM,13.2 µM,,
CC1COS(=O)N1c1ccccc1 (stereo not drawn),> 100 µM,> 100 µM,> 100 µM,> 100 µM,> 100 µM,,> 100 µM,,
"CCC(C)[C@@H]1NC(=O)[C@@H]2CCCN2C(=O)C(CC(O)CCl)OC(=O)CCNC(=O)[C@H](C)N(C)C(=O)[C@H](C(C)C)N(C)C1=O (stereo partly drawn) (cyclo([Ile(3ξ)][NMeV][NMeA][βAla][Pentanoyl(2-O,4-OH,5-Cl)]P))",,,,,,,,> 100 µM,
NCCNCCNCc1c2ccccc2c(CNCCNCCN)c2ccccc12,> 100 µM,> 100 µM,> 100 µM,> 100 µM,> 100 µM,> 100 µM,,,
C[C@]12CC[C@H]3[C@@H](CCC4=CC(=O)CC[C@@]43C)[C@]1(O)CC[C@]2(O)C(=O)CO,,,,,,,,> 100 µM,
O=C(O)c1ccccc1NS(=O)(=O)c1ccc(Cl)cc1,> 100 µM,> 100 µM,> 100 µM,> 100 µM,> 100 µM,> 100 µM,> 100 µM,,
OC(c1ccccc1)c1c(-c2ccccc2)[nH]c(-c2ccccc2)c1C(O)c1ccccc1 (stereo not drawn),,,,,,,,7.2 µM,
CC(C)OC(=O)Nc1c([N+](=O)[O-])cc(C(F)(F)F)cc1[N+](=O)[O-],> 100 µM,,> 100 µM,> 100 µM,> 55.7 µM,> 100 µM,> 100 µM,> 100 µM,
CC1=NC2(C(=O)O)C3(C(=O)O)N=C(C)OC3(C(F)(F)F)C2(C(F)(F)F)O1 (stereo not drawn),> 100 µM,> 100 µM,> 100 µM,> 100 µM,> 100 µM,> 100 µM,> 100 µM,,
COc1ccc2c(c1[N+](=O)[O-])CC[C@@H]1[C@@H]2CC[C@]2(C)C(=O)CC[C@@H]12,> 25 µM,25 µM,> 25 µM,> 25 µM,25 µM,25 µM,> 25 µM,> 1000 µM,GI50 [9]: > 25 µM; TGI [10]: 25 µM; TGI [11]: > 25 µM; TGI [12]: > 25 µM

# From PubChem BioAssay (NCI)
